In PMC5259791 (Scientific Reports, 2017):

Key:
[1] = target: T1, PPARγ1 (Homo sapiens, UniProt P37231); assay: PPRE-luciferase transactivation in HEK293 cells stably expressing exogenous PPARγ; format: cell-based
T1 construct: from a transfected PCDNA-3 vector carrying a complete PPARγ cDNA; expressed in transfected cells
T1 sequence (P37231 1-477 isoform P37231-2): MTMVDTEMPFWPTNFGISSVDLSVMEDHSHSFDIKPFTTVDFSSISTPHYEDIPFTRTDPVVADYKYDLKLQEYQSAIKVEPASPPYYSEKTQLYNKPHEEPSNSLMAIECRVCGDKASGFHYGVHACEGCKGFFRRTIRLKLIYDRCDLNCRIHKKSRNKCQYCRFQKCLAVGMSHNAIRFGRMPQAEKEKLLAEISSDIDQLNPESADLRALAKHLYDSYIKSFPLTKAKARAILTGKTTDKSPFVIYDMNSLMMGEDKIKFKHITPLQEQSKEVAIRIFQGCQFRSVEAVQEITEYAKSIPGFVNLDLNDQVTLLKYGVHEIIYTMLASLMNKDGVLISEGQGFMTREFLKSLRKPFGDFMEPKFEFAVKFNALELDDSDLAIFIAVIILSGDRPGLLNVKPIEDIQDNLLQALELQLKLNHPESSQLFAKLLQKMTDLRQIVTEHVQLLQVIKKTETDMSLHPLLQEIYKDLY
From the text: These cells were selected as they express a fixed and known amount of PPARγ, so that the differences in luciferase activity can be ascribed to the different ligand used. […] (b) Human HEK293T cells were co-transfected with the PPRE-luciferase reporter gene and the wild-type PPARγ1 or its mutant version (C285A).
HEK293 cells that stably express an exogenous Flag-tagged PPARγ from a transfected PCDNA-3 vector carrying a complete PPARγ cDNA were used for transfection experiments. The PPRE-Luc plasmid contains a luciferase reporter gene under the transcriptional control of three copies of the PPRE (Peroxisome Proliferator Response Element) derived from Acyl-CoA oxidase gene fused upstream to the herpes simplex thymidine kinase (TK) promoter, as described. […] Transient transfection assays were carried out as described in ref. [44]. […] In this case, the experiments were carried out into basal HEK293T cells and the RSV-β-Gal plasmid was used as control for transfection efficiency. […] The wild type and mutant PPARγ containing expression vectors were kindly provided by Dott. Takuma Shiraki. At least three independent experiments were performed for each transfection carried out in duplicate. Luciferase activity was normalized to β-galactosidase activity and reported as fold-induction.

[2] = target: T2, PPARγ (Homo sapiens, UniProt P37231); assay: SPR on immobilized PPARγ; format: binding
T2 sequence (P37231 195-477 isoform P37231-2 limits assumed): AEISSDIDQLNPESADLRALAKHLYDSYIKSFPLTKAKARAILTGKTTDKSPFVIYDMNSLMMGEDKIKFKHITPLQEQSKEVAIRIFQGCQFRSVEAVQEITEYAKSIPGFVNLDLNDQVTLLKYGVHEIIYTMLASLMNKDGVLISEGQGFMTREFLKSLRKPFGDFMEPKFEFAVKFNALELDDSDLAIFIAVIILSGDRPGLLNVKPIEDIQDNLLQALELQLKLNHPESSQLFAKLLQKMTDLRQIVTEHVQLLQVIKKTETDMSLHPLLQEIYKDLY
Method: ; SPR analysis was also performed using the immobilized PPARγ LBD to evaluate if this protein portion was involved in the interaction with 1; […]. Conversely, no affinity of the diterpene towards Hsp60 was observed (Fig. 2c).
To assess the potential of 1 to act as a PPARγ modulator, we investigated the structural and functional aspects of its interaction with this nuclear receptor. To define the structural features required by 1 for an efficient interaction with PPARγ, as a first step, we performed SPR analyses using some diterpenes displaying structural relationship with 1 (compounds 2–9, Fig. 1). […]. SPR analyses were carried out on a BIACORE 3000 instrument (GE-Healthcare). PPARα, PPARγ, PPARδ and HSP60 surfaces were prepared on research−grade CM5 sensor chips (GE Healthcare). Proteins (100 μg/ml in 10 mM CH3COONa, pH 5.0) were immobilized using a standard amine−coupling protocol, to obtain densities of 3–5 kRU. Testing compounds were dissolved in 100% DMSO to obtain 4 mM solutions, and then diluted in PBS containing variable amounts of DMSO, achieving a final DMSO concentration of 0.1%. […]. SPR experiments and data elaboration were carried out as reported elsewhere.

[3] = target: T3, PPARα (Homo sapiens, UniProt Q07869); assay: SPR on immobilized PPARα; format: binding
T3 construct: purchased Tebu-Bio
T3 sequence (Q07869 1-468): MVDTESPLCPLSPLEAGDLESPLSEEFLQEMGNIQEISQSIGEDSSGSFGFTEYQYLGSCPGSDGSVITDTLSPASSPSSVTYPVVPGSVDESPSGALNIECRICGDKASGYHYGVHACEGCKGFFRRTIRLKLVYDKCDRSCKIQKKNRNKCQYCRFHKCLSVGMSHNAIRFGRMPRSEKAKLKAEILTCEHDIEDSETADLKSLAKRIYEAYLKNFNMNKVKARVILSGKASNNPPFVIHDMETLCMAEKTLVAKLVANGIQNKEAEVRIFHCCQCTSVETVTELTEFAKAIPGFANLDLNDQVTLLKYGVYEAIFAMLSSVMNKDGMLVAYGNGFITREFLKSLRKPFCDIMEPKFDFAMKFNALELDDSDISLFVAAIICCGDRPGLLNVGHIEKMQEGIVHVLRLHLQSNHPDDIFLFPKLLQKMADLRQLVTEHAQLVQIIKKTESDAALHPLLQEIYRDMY
Method: In order to evaluate if 1 acts as a selective ligand of PPARγ, SPR analyses were also carried out on immobilized PPARα and PPARδ, two proteins structurally and functionally related to PPARγ[23][24].
SPR analyses were carried out on a BIACORE 3000 instrument (GE-Healthcare). PPARα, PPARγ, PPARδ and HSP60 surfaces were prepared on research−grade CM5 sensor chips (GE Healthcare). Proteins (100 μg/ml in 10 mM CH3COONa, pH 5.0) were immobilized using a standard amine−coupling protocol, to obtain densities of 3–5 kRU. Testing compounds were dissolved in 100% DMSO to obtain 4 mM solutions, and then diluted in PBS containing variable amounts of DMSO, achieving a final DMSO concentration of 0.1%. For each molecule a five−point concentration series (25 nM, 65 nM, 150 nM, 400 nM, 1 μM) was set up. SPR experiments and data elaboration were carried out as reported elsewhere.

C=C1C(=O)C23CCC4C(C(=O)OC)CC(O)CC4(C)C2CCC1C3 (stereo not shown) [Compound 1, 15-ketoatractyligenin methyl ester]
effect of detergent on transactivation activity profile ([1]; 0.001% Tween 20 in the medium): not find any variation in the bell-shaped activity profile | concentration at peak of luciferase activity ([1]; 24 h treatment, HEK293 stably expressing PPARγ): 1 µM | transactivation activity lower than Rosiglitazone ([1]; 24 h treatment, relative to Rosiglitazone): about 40% | type of PPARγ agonism ([1]; transactivation assay): partial agonist | dissociation of 1/PPARγ complex ([2]; SPR, compared with 1/PPARα complex): required longer times and was incomplete | Kd ([2]; SPR, immobilized PPARγ): 25.8 ± 5.5 nM | interaction with PPARγ pre-incubated with 1 ([2]; protein immobilized after 2 h incubation with 5-fold molar excess of 1): did not interact | interaction with PPARα [3]: only a weak interaction | time to complete dissociation of complex ([3]; 1/PPARα complex): less than 50 s | Kd ([3]; immobilized PPARα): 1320 ± 80 nM
